Results reported in patent US20160002248A1, “GLS1 INHIBITORS FOR TREATING DISEASE” (Board of Regents, The University of Texas System, priority 2014, published 2016).

Legend:
[1] = biological target: T1, purified recombinant human GAC (GLS1) (Homo sapiens, UniProt O94925); experiment: GLS1 Enzymatic Activity Assay (dual-coupled enzymatic assay); assay type: biochemical
T1 sequence (O94925 55-598 isoform O94925-3 limits assumed): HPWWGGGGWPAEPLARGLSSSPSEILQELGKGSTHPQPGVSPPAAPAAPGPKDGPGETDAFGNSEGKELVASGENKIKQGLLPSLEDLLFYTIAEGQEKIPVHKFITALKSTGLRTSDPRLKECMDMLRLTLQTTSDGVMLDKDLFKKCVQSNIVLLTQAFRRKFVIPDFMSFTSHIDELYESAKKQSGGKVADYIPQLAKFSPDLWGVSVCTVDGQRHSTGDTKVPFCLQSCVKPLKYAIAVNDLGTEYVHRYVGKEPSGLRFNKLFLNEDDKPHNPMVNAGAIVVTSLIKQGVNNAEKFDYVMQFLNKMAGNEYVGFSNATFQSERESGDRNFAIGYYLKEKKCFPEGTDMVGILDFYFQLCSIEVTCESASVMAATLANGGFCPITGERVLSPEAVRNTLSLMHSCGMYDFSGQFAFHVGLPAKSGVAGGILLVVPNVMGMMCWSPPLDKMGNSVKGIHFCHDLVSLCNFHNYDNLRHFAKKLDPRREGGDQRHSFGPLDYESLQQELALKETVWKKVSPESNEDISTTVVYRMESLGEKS
Outline: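 GAC activity measured by coupling glutamate to glutamate oxidase and HRP, generating resorufin from Amplex UltraRed. Enzyme (2 nM) preincubated with 50 mM potassium phosphate 10 min at room temperature, then inhibitor 10 min; 1 mM glutamine substrate, 1% DMSO. Fluorescence 530/590 nm, kinetic or 20-min endpoint; IC50 from four-parameter logistic fit.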

A549 cells = experiment: Proliferation Assay (A549 cell viability, Cell Titer Fluor); assay type: cell-based; conditions: Homo sapiens, 72 hours
Outline: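 Seed A549 at 1000 cells/well and culture 24 h. Add compound (final DMSO 0.5%) and incubate 72 h at 37 °C. Add Cell Titer Fluor, mix 15 min, incubate 30 min, read fluorescence and fit EC50 by four-parameter logistic.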

SMILES | IC50 [1] | EC50 (A549 cells)
CCOC(=O)c1cccc(CNC(=O)c2cn(CCCCc3cc4cc(C5CC5)[nH]c4nn3)nn2)n1 [Example 88, ethyl 6-({[1-(4-{6-cyclopropyl-7H-pyrrolo[2,3-c]pyridazin-3-yl}butyl)-1H-1,2,3-triazol-4-yl]formamido}methyl)pyridine-2-carboxylate] | < 100 nM | 500 to 5000 nM
CC(C)(O)c1ccc(CNC(=O)c2cn(CCCCc3cc4c(Br)c(C5CC5)[nH]c4nn3)nn2)cn1 [Example 89, 1-(4-{5-bromo-6-cyclopropyl-7H-pyrrolo[2,3-c]pyridazin-3-yl}butyl)-N-{[6-(2-hydroxypropan-2-yl)pyridin-3-yl]methyl}-1H-1,2,3-triazole-4-carboxamide] | < 100 nM | 100 to 500 nM
Cc1ccc(CNC(=O)c2cn(CCCCc3cc4c(I)c(C5CC5)[nH]c4nn3)nn2)cn1 [Example 91, 1-(4-{6-cyclopropyl-5-iodo-7H-pyrrolo[2,3-c]pyridazin-3-yl}butyl)-N-[(6-methylpyridin-3-yl)methyl]-1H-1,2,3-triazole-4-carboxamide] | < 100 nM | 100 to 500 nM
Cc1ccc(CNC(=O)c2cn(CCCCc3cc4cc(Cc5ccccc5)[nH]c4nn3)nn2)cn1 [Example 92, 1-(4-{6-benzyl-7H-pyrrolo[2,3-c]pyridazin-3-yl}butyl)-N-[(6-methylpyridin-3-yl)methyl]-1H-1,2,3-triazole-4-carboxamide] | < 100 nM | 100 to 500 nM
Cc1ccc(CNC(=O)c2cn(CCCCc3cc4c(C5CC5)c(C5CC5)[nH]c4nn3)nn2)cn1 [Example 96, 1-(4-(5,6-dicyclopropyl-7H-pyrrolo[2,3-c]pyridazin-3-yl)butyl)-N-((6-methylpyridin-3-yl)methyl)-1H-1,2,3-triazole-4-carboxamide] | < 100 nM | 100 to 500 nM

Second part, the compound after the results:

IC50 [1] | EC50 (A549 cells) | SMILES
< 100 nM | 500 to 5000 nM | Cc1ccc(CNC(=O)c2cn(CCCCc3cc4c(F)c(C5CC5)[nH]c4nn3)nn2)cn1 [Example 90, 1-(4-(6-cyclopropyl-5-fluoro-7H-pyrrolo[2,3-c]pyridazin-3-yl)butyl)-N-((6-methylpyridin-3-yl)methyl)-1H-1,2,3-triazole-4-carboxamide 2,2,2-trifluoroacetate]
< 100 nM | < 100 nM | CC(C)(C)OC(=O)NCc1cccc(CNC(=O)c2cn(CCCCc3cc4cc(C5CC5)[nH]c4nn3)nn2)c1 [Example 93, tert-butyl N-{[3-({[1-(4-{6-cyclopropyl-7H-pyrrolo[2,3-c]pyridazin-3-yl}butyl)-1H-1,2,3-triazol-4-yl]formamido}methyl)phenyl]methyl}carbamate]
< 100 nM | 100 to 500 nM | Cc1ccc(CNC(=O)c2cn(CCCCc3cc4cc(C5CN(C(=O)OC(C)(C)C)C5)[nH]c4nn3)nn2)cn1 [Example 94, tert-butyl 3-{3-[4-(4-{[(6-methylpyridin-3-yl)methyl]carbamoyl}-1H-1,2,3-triazol-1-yl)butyl]-7H-pyrrolo[2,3-c]pyridazin-6-yl}azetidine-1-carboxylate]
< 100 nM | 100 to 500 nM | Cc1ccc(CNC(=O)c2cn(CCCCc3cc4cc(C5CCN(C(=O)OC(C)(C)C)CC5)[nH]c4nn3)nn2)cn1 [Example 95, ten-butyl 4-{3-[4-(4-{[(6-methylpyridin-3-yl)methyl]carbamoyl}-1H-1,2,3-triazol-1-yl)butyl]-7H-pyrrolo[2,3-c]pyridazin-6-yl}piperidine-1-carboxylate]
100 to 500 nM | 500 to 5000 nM | Cc1ccc(CNC(=O)c2cn(CCCCc3cc4cc(C5CNC5)[nH]c4nn3)nn2)cn1 [Example 97, 1-{4-[6-(azetidin-3-yl)-7H-pyrrolo[2,3-c]pyridazin-3-yl]butyl}-N-[(6-methylpyridin-3-yl)methyl]-1H-1,2,3-triazole-4-carboxamide]
500 to 5000 nM | > 5000 nM | Cc1ccc(CNC(=O)c2cn(CCCCc3cc4cc(C5CCNCC5)[nH]c4nn3)nn2)cn1 [Example 98, N-[(6-methylpyridin-3-yl)methyl]-1-{4-[6-(piperidin-4-yl)-7H-pyrrolo[2,3-c]pyridazin-3-yl]butyl}-1H-1,2,3-triazole-4-carboxamide]
